Experimental data: ChEMBL document CHEMBL3301361, “Experimental in vitro DMPK and physicochemical data on a set of publicly disclosed compounds”
Values after ≈ are worked out from the molar mass of the structure shown.

Tests used:
[1] = in vitro; conditions: human
[2] = physchem
[3] = physchem; conditions: octan-1-ol/water
[4] = physchem; conditions: pH 7.4 buffer
[5] = in vitro; conditions: human, plasma, PPB
[6] = in vitro; conditions: SD, HW or BN, rat, plasma

Row | Structure (SMILES) | pKa [2] | logD ([3]; pH 7.4, LogD7.4) | other results
1 | CCOC(=O)N1CCC(Nc2cc(OC)ccn2)CC1 | 7.2 |  | microsomal CLint ([1]; liver microsomes): 4 µL/min/mg
2 | COc1ccnc(NC2CCN(C(=O)c3ccccc3)CC2)c1 | 6.85 | 2.06 | microsomal CLint ([1]; liver microsomes): < 3 µL/min/mg
3 | COc1ccnc(NC2CCN(C(=O)c3ccc(Cl)cc3)CC2)c1 | 7.2 | 2.82 | 
4 | NC1=NC(c2cccs2)Nc2cccc(F)c21 (stereo not given) | 8.73 | 0.91 | 
5 | Cc1cc(N)nc(CCNC(=O)c2ccc(C#N)cc2)c1 | 7.1 | 1.62 | solubility thermodynamic [4]: 64.6 µM (≈ 18.1 µg/mL)
6 | C[C@H]1CN=C(N)c2sccc2O1 | 11 |  | microsomal CLint ([1]; microsomes): 7 µL/min/mg
7 | COc1ccc(CNc2cc(C)ccn2)c(O)c1 | 6.8 |  | 
8 | COc1ccccc1CNc1cc(C)ccn1 | 7.1 | 3.28 | 
9 | Cc1ccnc(NCc2ccccc2O)c1 | 6.8 | 3.35 | 
10 | Cc1ccnc(NCc2c(O)ccc3ccccc23)c1 | 6.6 |  | 
11 | O=C(O)COc1ccc(Cl)cc1CN1CCC(S(=O)(=O)c2ccccc2)CC1 | 7.8 | 0.48 | 
12 | CCOC(=O)N1CCC2(CC1)N=C(N)c1sccc1N2 | 10.5 |  | 
13 | N#Cc1ccc(Cl)cc1O[C@H](CCN)c1ccccc1 | 10.3 | 0.76 | microsomal CLint ([1]; liver microsomes): 4 µL/min/mg
14 | c1ccc(CSc2nnc([C@@H]3CCCN3)o2)cc1 | 7.03 |  | 
15 | CCOC(=O)N1CCC2(CC1)N=C(N)c1c(F)cccc1N2 | 9.1 |  | 
16 | N#Cc1ccc(C(=O)N2CCC3(CC2)N=C(N)c2c(F)ccc(F)c2N3)cc1 | 8.15 | 0.86 | fraction unbound at 5 h [5]: 0.285
17 | NC1=NC(c2ccccc2)Nc2ccccc21 (stereo not given) | 9.83 |  | 
18 | NCC(Oc1cc(Cl)ccc1Cl)c1ccccc1 (stereo not given) | 8.5 |  | 
19 | Cc1ccnc(NCc2ccccc2)c1 | 7 | 3.08 | 
20 | Nc1ccc(OCC(=O)O)c(-c2ccccc2)c1 | 5.1 |  | microsomal CLint ([1]; liver microsomes): < 3 µL/min/mg
21 | CCC(CCNC)Oc1cc(Cl)ccc1C#N (stereo not given) | 10.1 | 0.38 | microsomal CLint ([1]; liver microsomes): < 3 µL/min/mg
22 | CNCC[C@@H](Oc1cc(C(F)(F)F)ccc1C#N)c1ccccc1 | 10.4 | 1.3 | microsomal CLint ([1]; microsomes): < 3 µL/min/mg
23 | Cc1ccc(C#N)c(S[C@H](CCN)c2ccccc2)n1 | 9.8 |  | 

Row | Structure (SMILES) | pKa [2] | logD ([3]; pH 7.4, LogD7.4) | other results
24 | CN(C(=O)Cc1ccc(S(=O)(=O)N(C)C)cc1)C1CCN(CCC(c2ccccc2)c2ccccc2)CC1 | 8.1 |  | 
25 | CC(=O)Nc1ccc(CNc2[nH]nc3ccnc(Oc4ccccc4)c23)cc1 | 3.2 | 3.03 | microsomal CLint ([1]; liver microsomes): 12 µL/min/mg
26 | O=C(CN1C2=NCCN2c2ccccc21)c1ccc(Cl)cc1 | 9.1 | 2.62 | microsomal CLint ([1]; microsomes): 4 µL/min/mg; fraction unbound at 5 h [5]: 0.339
27 | COc1cccc(C(=O)NCCN2CCC(Oc3ccc(Cl)c(Cl)c3)CC2)c1 | 7.4 |  | solubility thermodynamic [4]: 9.5 µM (≈ 4.02 µg/mL); microsomal CLint ([1]; liver microsomes): 9 µL/min/mg; fraction unbound at 5 h [5]: 0.0008
28 | COc1ccc(C2(c3cccc(-c4cncnc4)c3)N=C(C)C(N)=N2)cc1C (stereo not given) | 5.83 |  | fraction unbound at 5 h [6]: 0.271; fraction unbound at 5 h [5]: 0.062
29 | O=C(NCC12CC3CC(CC(C3)C1)C2)c1cc(CC2CCNCC2)ccc1Cl | 10.1 | 1.49 | fraction unbound at 5 h [5]: 0.0872
30 | C[C@H](CO)Nc1nc(SCc2cccc(F)c2F)nc2nc(N)cnc12 | 4.2 | 2.89 | microsomal CLint ([1]; liver microsomes): 12 µL/min/mg; fraction unbound at 5 h [5]: 0.0447
31 | Cc1ncc[nH]1 | 7.8 |  | 
32 | CCc1ncc[nH]1 | 7.8 |  | 
33 | Nc1nc2ccccc2[nH]1 | 7.2 |  | microsomal CLint ([1]; liver microsomes): < 3 µL/min/mg
34 | NC1=Nc2cccc3cccc(c23)N1 | 7.6 |  | 
35 | NC1=NC(c2ccc(F)cc2)Nc2cccc(F)c21 (stereo not given) | 9 |  | 
36 | NC1=NC(c2ccco2)Nc2c(F)ccc(F)c21 (stereo not given) | 8.2 | 1.2 | 
37 | COc1ccc(OC)c(CNc2[nH]nc3cccc(Oc4ccccc4)c23)c1 | 3.8 |  | microsomal CLint ([1]; liver microsomes): 11 µL/min/mg
38 | CCOC(=O)N1CCC2(CC1)N=C(N)c1c(Cl)cccc1N2 | 9 |  | 
39 | N#Cc1ccc(C(=O)N2CCC3(CC2)N=C(N)c2c(F)cccc2N3)cc1 | 9 | 0.66 | 
40 | NC1=NC(c2ccco2)Nc2ccccc21 (stereo not given) | 9.13 |  | 
41 | CON(C)C(=O)c1c(Cn2c(C)nc(Cl)c2Cl)sc2c1c(=O)n(C)c(=O)n2CC(C)C | 2.7 | 2.23 | solubility thermodynamic [4]: 513 µM (≈ 250 µg/mL)
42 | N#Cc1ccc(C(=O)N2CCC3(CC2)N=C(N)c2c(F)ccc(F)c2N3)cn1 | 8.4 | 0.79 | fraction unbound at 5 h [5]: 0.134
43 | NCCc1ccc(Cl)cc1 | 10.1 |  | 
44 | NCCc1ccc([N+](=O)[O-])cc1 | 9.4 |  | 
45 | O=C(NCC12CC3CC(CC(C3)C1)C2)c1cc(OCCCNCCCO)ccc1Cl | 9.5 | 1.41 | microsomal CLint ([1]; liver microsomes): 27 µL/min/mg
46 | O=C(NCC12CC3CC(CC(C3)C1)C2)c1cc(OC2CCNCC2)ncc1Cl | 9.1 | 1.56 | 

Row | Structure (SMILES) | pKa [2] | logD ([3]; pH 7.4, LogD7.4) | other results
47 | Cc1cc(C)nc(N)c1 | 7.7 | 0.85 | 
48 | Cc1ccnc(N)c1N | 7.2 |  | 
49 | NC1=NC(C2CC2)Cc2ccccc21 (stereo not given) | > 11 |  | 
50 | NC1=NC(C2CC2)Cc2ccsc21 (stereo not given) | > 11 |  | 
51 | CCN(CC)CCNC(=O)c1ccc(NC(C)=O)cc1 [ACECAINIDE] | 9.14 |  | 
52 | CCN(CC)C(C)C(=O)c1ccccc1 (stereo not given) [DIETHYLPROPION] | 8.8 |  | logD ([3]; pH 7.4): 1.18
53 | CN(C)CCn1cnc2c1c(=O)n(C)c(=O)n2C [DIMETHAZAN] | 7.5 |  | 
54 | CN(C)CCC=C1c2ccccc2COc2ccccc21 [DOXEPIN] | 8.5 | 2.15 | 
55 | CCc1cc(C(N)=S)ccn1 [ETHIONAMIDE] | 4.4 | 1.52 | fraction unbound at 5 h [6]: 0.54
56 | COc1ccc2c3c1O[C@H]1C[C@@H](O)C=C[C@@]31CCN(C)C2 [GALANTAMINE] | 8.21 |  | 
57 | O=C(CCCN1CCC(O)(c2ccc(Cl)cc2)CC1)c1ccc(F)cc1 [HALOPERIDOL] | 8.75 | 2.67 | solubility thermodynamic [4]: 50.1 µM (≈ 18.8 µg/mL); fraction unbound at 5 h [6]: 0.186
58 | CN1CCC(=C2c3ccccc3CC(=O)c3sccc32)CC1 [KETOTIFEN] | 9 |  | 
59 | CC12CC3CC(C)(C1)CC(N)(C3)C2 [MEMANTINE] | 10.7 | 0.06 | 
60 | Cc1ncc([N+](=O)[O-])n1CCO [METRONIDAZOLE] | 2.51 | -0.11 | 
61 | COc1ccc(OC)c(C(O)CNC(=O)CN)c1 (stereo not given) [MIDODRINE] | 7.59 |  | 
62 | c1ccc2c(CC3=NCCN3)cccc2c1 [NAPHAZOLINE] | 10.3 |  | 
63 | C=CCOc1ccccc1OCC(O)CNC(C)C (stereo not given) [OXPRENOLOL] | 9.69 | 0.2 | 
64 | CCOCc1nc2c(N)nc3ccccc3c2n1CC(C)(C)O [RESIQUIMOD] | 7.1 | 1.69 | solubility thermodynamic [4]: 417 µM (≈ 131 µg/mL); fraction unbound at 5 h [6]: 0.574
65 | Cc1nc2n(c(=O)c1CCN1CCC(c3noc4cc(F)ccc34)CC1)CCCC2 [RISPERIDONE] | 8.49 |  | logD ([3]; pH 7.4): 2.05; fraction unbound at 5 h [6]: 0.0544
66 | CC(C)(C)c1ccc(C(O)CCCN2CCC(C(O)(c3ccccc3)c3ccccc3)CC2)cc1 (stereo not given) [TERFENADINE] | 8.8 | 3.99 | solubility thermodynamic [4]: 5.4 µM (≈ 2.55 µg/mL); fraction unbound at 5 h [5]: 0.0084
67 | c1ccc2c(c1)CCCC2C1=NCCN1 (stereo not given) [TETRAHYDROZOLINE] | 10.6 |  | 
68 | c1ccc(CC2=NCCN2)cc1 [TOLAZOLINE] | 10.7 |  | 
69 | Cc1cc(C(C)(C)C)cc(C)c1CC1=NCCN1 [XYLOMETAZOLINE] | 10.6 |  | 
